Assay results reported in the NIST ThermoML archive (doi:10.1016/j.jct.2007.07.005).

Assay: xn = mol fraction of the nth substance listed
Conditions: Fluid (supercritical or subcritical phases), vibrating tube

CCCCCO [pentan-1-ol] + O=C=O
Conditions | mass density [kg/m3]
332.96 K, 13004 kPa, x2 = 0.0816 | 798.35
332.96 K, 13052 kPa, x2 = 0.7274 | 804
332.96 K, 14008 kPa, x2 = 0.7274 | 808.02
332.96 K, 14029 kPa, x2 = 0.0816 | 799.18
332.96 K, 14991 kPa, x2 = 0.0816 | 799.97
332.96 K, 15033 kPa, x2 = 0.7274 | 812.1
332.96 K, 16004 kPa, x2 = 0.0816 | 800.75
332.96 K, 16033 kPa, x2 = 0.7274 | 815.82
332.96 K, 17014 kPa, x2 = 0.0816 | 801.55
332.96 K, 17034 kPa, x2 = 0.7274 | 819.37
332.96 K, 17988 kPa, x2 = 0.7274 | 822.59
332.96 K, 18018 kPa, x2 = 0.0816 | 802.33
332.96 K, 19024 kPa, x2 = 0.0816 | 803.1
332.96 K, 19059 kPa, x2 = 0.7274 | 826.03
332.96 K, 19981 kPa, x2 = 0.0816 | 803.83
332.96 K, 20008 kPa, x2 = 0.7274 | 828.96
332.96 K, 20999 kPa, x2 = 0.7274 | 831.94
332.96 K, 21024 kPa, x2 = 0.0816 | 804.62
332.96 K, 22023 kPa, x2 = 0.7274 | 834.87
332.96 K, 22057 kPa, x2 = 0.0816 | 805.42
332.96 K, 23004 kPa, x2 = 0.7274 | 837.6
332.96 K, 23012 kPa, x2 = 0.0816 | 806.12
332.96 K, 23961 kPa, x2 = 0.7274 | 840.19
332.96 K, 24007 kPa, x2 = 0.0816 | 806.87
332.96 K, 25043 kPa, x2 = 0.0816 | 807.63
333.01 K, 7029 kPa, x2 = 0.1347 | 794.28
333.01 K, 8022 kPa, x2 = 0.1347 | 795.19
333.01 K, 9011 kPa, x2 = 0.1347 | 796.07
333.01 K, 10005 kPa, x2 = 0.1347 | 796.96
333.01 K, 11019 kPa, x2 = 0.1347 | 797.85
333.01 K, 11162 kPa, x2 = 0.6054 | 813.27
333.01 K, 12017 kPa, x2 = 0.1347 | 798.71
333.01 K, 12048 kPa, x2 = 0.6054 | 815.29
333.01 K, 13025 kPa, x2 = 0.1347 | 799.58
333.01 K, 13037 kPa, x2 = 0.6054 | 817.51
333.01 K, 14019 kPa, x2 = 0.1347 | 800.43
333.01 K, 14041 kPa, x2 = 0.6054 | 819.75
333.01 K, 15000 kPa, x2 = 0.1347 | 801.26
333.01 K, 15073 kPa, x2 = 0.6054 | 822.01
333.01 K, 16013 kPa, x2 = 0.1347 | 802.1
333.01 K, 16020 kPa, x2 = 0.6054 | 824.01
333.01 K, 17014 kPa, x2 = 0.1347 | 802.91
333.01 K, 17032 kPa, x2 = 0.6054 | 826.08
333.01 K, 18011 kPa, x2 = 0.1347 | 803.75
333.01 K, 18043 kPa, x2 = 0.6054 | 828.09
333.01 K, 19014 kPa, x2 = 0.1347 | 804.55
333.01 K, 19023 kPa, x2 = 0.6054 | 830
333.01 K, 20028 kPa, x2 = 0.6054 | 831.92
333.01 K, 20029 kPa, x2 = 0.1347 | 805.36
333.01 K, 21007 kPa, x2 = 0.1347 | 806.13
333.01 K, 21051 kPa, x2 = 0.6054 | 833.82
333.01 K, 22021 kPa, x2 = 0.1347 | 806.92
333.01 K, 22023 kPa, x2 = 0.6054 | 835.61
333.01 K, 23026 kPa, x2 = 0.1347 | 807.74
333.01 K, 23040 kPa, x2 = 0.6054 | 837.43
333.01 K, 24005 kPa, x2 = 0.1347 | 808.5
333.01 K, 24066 kPa, x2 = 0.6054 | 839.22
333.01 K, 25039 kPa, x2 = 0.6054 | 840.93
333.01 K, 25049 kPa, x2 = 0.1347 | 809.32
342.76 K, 505 kPa, x2 = 0 | 776.31
342.76 K, 997 kPa, x2 = 0 | 776.77
342.76 K, 1995 kPa, x2 = 0 | 777.69
342.76 K, 3011 kPa, x2 = 0 | 778.59
342.76 K, 4012 kPa, x2 = 0 | 779.47
342.76 K, 5011 kPa, x2 = 0 | 780.34
342.76 K, 6011 kPa, x2 = 0 | 781.22
342.76 K, 7003 kPa, x2 = 0 | 782.03
342.76 K, 8015 kPa, x2 = 0 | 782.91
342.76 K, 9000 kPa, x2 = 0 | 783.73
342.76 K, 10019 kPa, x2 = 0 | 784.58
342.76 K, 11020 kPa, x2 = 0 | 785.4
342.76 K, 12002 kPa, x2 = 0 | 786.2
342.76 K, 13016 kPa, x2 = 0 | 787.02
342.76 K, 14024 kPa, x2 = 0 | 787.81
342.76 K, 15002 kPa, x2 = 0 | 788.59
342.76 K, 16007 kPa, x2 = 0 | 789.36
342.76 K, 17037 kPa, x2 = 0 | 790.15
342.76 K, 17988 kPa, x2 = 0 | 790.87
342.76 K, 19037 kPa, x2 = 0 | 791.66
342.76 K, 20003 kPa, x2 = 0 | 792.38
342.76 K, 21015 kPa, x2 = 0 | 793.14
342.76 K, 22019 kPa, x2 = 0 | 793.88
342.76 K, 23039 kPa, x2 = 0 | 794.62
342.76 K, 24027 kPa, x2 = 0 | 795.36
342.76 K, 25028 kPa, x2 = 0 | 796.1
342.84 K, 15024 kPa, x2 = 0.9757 | 576.16
342.84 K, 16006 kPa, x2 = 0.9757 | 609.2
342.84 K, 17033 kPa, x2 = 0.9757 | 637.26
342.84 K, 18023 kPa, x2 = 0.9757 | 659.89
342.84 K, 19028 kPa, x2 = 0.9757 | 679.62
342.84 K, 20027 kPa, x2 = 0.9757 | 696.58
342.84 K, 21039 kPa, x2 = 0.9757 | 711.98
342.84 K, 22011 kPa, x2 = 0.9757 | 725.1
342.84 K, 23016 kPa, x2 = 0.9757 | 737.54
342.87 K, 8048 kPa, x2 = 0.3624 | 796.26
342.87 K, 9023 kPa, x2 = 0.3624 | 797.49
342.87 K, 10006 kPa, x2 = 0.4651 | 797.4
342.87 K, 10022 kPa, x2 = 0.3624 | 798.77
342.87 K, 11004 kPa, x2 = 0.3624 | 799.97
342.87 K, 11022 kPa, x2 = 0.4651 | 799.24
342.87 K, 11991 kPa, x2 = 0.4651 | 801.02
342.87 K, 12013 kPa, x2 = 0.3624 | 801.19
342.87 K, 13001 kPa, x2 = 0.4651 | 802.82
342.87 K, 13035 kPa, x2 = 0.3624 | 802.37
342.87 K, 13990 kPa, x2 = 0.3624 | 803.48
342.87 K, 13990 kPa, x2 = 0.4651 | 804.53
342.87 K, 14011 kPa, x2 = 0.7274 | 784.26
342.87 K, 14992 kPa, x2 = 0.7274 | 789
342.87 K, 15018 kPa, x2 = 0.3624 | 804.64
342.87 K, 15036 kPa, x2 = 0.4651 | 806.31
342.87 K, 16009 kPa, x2 = 0.3624 | 805.73
342.87 K, 16014 kPa, x2 = 0.4651 | 807.95
342.87 K, 16025 kPa, x2 = 0.7274 | 793.59
342.87 K, 17000 kPa, x2 = 0.3624 | 806.82
342.87 K, 17004 kPa, x2 = 0.4651 | 809.55
342.87 K, 17006 kPa, x2 = 0.7274 | 797.68
342.87 K, 18005 kPa, x2 = 0.7274 | 801.59
342.87 K, 18017 kPa, x2 = 0.4651 | 811.18
342.87 K, 18021 kPa, x2 = 0.3624 | 807.94
342.87 K, 19019 kPa, x2 = 0.4651 | 812.75
342.87 K, 19032 kPa, x2 = 0.7274 | 805.44
342.87 K, 19036 kPa, x2 = 0.3624 | 809.03
342.87 K, 19983 kPa, x2 = 0.7274 | 808.81
342.87 K, 20012 kPa, x2 = 0.3624 | 810.06
